Source: patent publication US10617677B2, “Nuclear transport modulators and uses thereof” (Biogen MA Inc., priority 2012, dated 2020)
“Also recorded” adds a separate entry of the source.

Legend:
[1] = test system: Nrf2 pathway; experiment: Nrf2 pathway induction in THP-1 cells with or without KEAP1 knockdown (quantitative PCR); format: cell-based, human
From the text: THP-1 (human acute monocytic leukemia cells) cells were used to evaluate the effects of Compound 1 on the Nrf2 pathway in an inflammation environment. Nuclear factor (erythroid-derived 2)-like 2 (Nrf2) is an anti-inflammatory transcription factor. Under normal conditions, Nrf2 is kept in the cytoplasm by Kelch like-ECH associated protein 1 (KEAP1), which degrades Nrf2 by ubiquitination. Nrf2 can also move into the nucleus and back into the cytoplasm as a CRM1 cargo. In the current study, Nrf2 was protected from degradation by knocking down KEAP1 with siRNA. Then, KEAP1-depleted cells were treated with TNFα to induce inflammation, and the ability of Compound 1 to reverse inflammation by up-regulation of the Nrf2 pathway was tested.
THP-1 (acute monocytic leukemia) cells were plated in two 10 cm culture dishes (6*10^6 cells/dish) with RPMI-1640 medium (Lonza) supplemented with 10% heat-inactivated fetal bovine serum (Invitrogen) and 2-mercaptoethanol to a final concentration of 0.05 mM. Cells in one dish were transfected with 50 nM of KEAP1 siRNA (Life Technologies, Silencer Select, siRNA ID # s18982) using Lipofectamine RNAiMax (Invitrogen), whereas the cells in the other dish were transfected with 50 nM of control siRNA, Block-iT (Invitrogen). Transfected cells were left for 72 h and the KEAP1 knockdown efficiency was calculated with quantitative PCR using a probe against KEAP1.
Next, the cells from each of the dishes were divided equally into 4 wells in different 6-well plates. One of the wells from each of the plates was pre-treated with 1 μM of Compound 1 for 1 h, followed by 20 ng/mL TNFα for 24 h. The other wells were treated with either 1 μM Compound 1 or 20 ng/mL TNFα or neither for 24 h. Following the treatment, RNA was extracted from the cells using an RNA extraction kit (Qiagen). RNA samples from each treatment group were reverse transcribed and real-time PCR was performed on the corresponding cDNA sequences using probes against Nrf2 and two of its downstream genes, NQO1 and EPHX1. THP-1 cells were transfected with KEAP1 siRNA. 40% knockdown efficiency was achieved. The KEAP1 knockdown cells were treated with either 1 μM of Compound 1 or 20 ng/mL of TNFα or both together for 24 h.

[2] = test system: BCCI injury to the medial frontal cortex; experiment: Bilateral controlled cortical impact (BCCI) injury in rats; format: in vivo
Method: Bilateral controlled cortical impact (BCCI) injury to the medial frontal cortex (MFC) of male Sprague Dawley rats was induced by a cortical contusion device. After CCI any cortical surface hemorrhaging was controlled, and the fascia and scalp were sutured. Sham-operated rats were anesthetized, mounted in the stereotaxic apparatus, and a craniotomy was performed.
Progesterone 16 mg/mL was dissolved in 22.5% 2-hydroxypropyl-β-cyclodextrin and the initial injection (16 mg/kg) was given i.p. 1 h after injury. The remaining injections (all 16 mg/kg) were given subcutaneously at 6 h post-injury and continued for 5 days after injury. Progesterone injections were made at a concentration of 1 mL/kg. Progesterone was used as a control.
Compound 1 0.2, 0.4, and 0.6 mg/mL was suspended in vehicle (0.6% w/v Pluronic® F-68 and 0.6% w/v PVP K-29/32 in water) and administered p.o at a concentration of 10 mL/kg, 16 h before injury and 2 h after injury, and administrations were continued for 4 days. Control rats received equivalent injections of the vehicle for Compound 1, at the same time points.
The Morris Water Maze (MWM) test is a spatial navigation task that measures learning and memory in rodents using visual cues. Subjects learn over the course of days to find a hidden platform. A MWM test was conducted two weeks after injury. Male Sprague Dawley rats were allowed to swim in the pool until they reached the platform located in the southwest quadrant of a tank, or until 90 seconds had elapsed. Behavior was tracked by a video camera hanging from above the pool and recorded and analyzed using video track software (ANY-maze).
The expression level of several cytokines in plasma harvested from rats in each treatment group was measured. The samples were received frozen and stored at −80° C. On the day of the experiment, the samples were thawed, diluted four-fold, and analyzed for cytokine expression on a Luminex platform. The samples were analyzed for the cytokines GRO/KC, IFNy, IL-1B, IL-6, IL-10, IL-12p70 and TNFa, using a multipliex kit manufactured by Millipore. […] The biggest change was in IL-10.
Quantitative measures of cell density were collected from anti-NeuN immunolabeled subsections from approximately 2-3 mm anterior to bregma. Regions of interest (ROIs) were drawn (blind to experimental condition) around Layers IV-VI in the cortical region adjacent to the injury site in CCI-treated animals or in the equivalent zone (dorsal cortex) in sham animals. An ROI of similar area was also evaluated in a ventral cortical region of the same section. Cell identification was performed using the cell counting module of Keyence BZ-II Analyzer software. Cell-to-gray matter (CG) area coefficients were determined for each ROI. […] The CCI-induced reduction in CG coefficient was mitigated by treatment with Compound 1 in the ventral cortex (−3% compared to sham; p=0.09). Although the effect of Compound 1 versus vehicle treatment in the ventral cortex is not statistically significant, it is anticipated that this effect would breach statistical significance in a larger study. No effect of Compound 1 was detected in the dorsal cortical region (−32% compared to sham) immediately adjacent to the injury site. The difference in the observed effect of Compound 1 on the ventral region versus the dorsal region may be a threshold effect related to the degree of injury, which was inversely related to the distance from the injury site. Thus, the damage to the dorsal cortical region could be too severe to be rescued by Compound 1 under these conditions.
Immunofluorescence was performed to evaluate the impact of TBI on several pathways of immune response, and to determine if Compound 1 might be mediating its neuroprotective effects via one or more of those pathways. […]

[3] = test system: COX-2; experiment: COX-2 protein expression in HeLa cells (immunoblot); format: cell-based; settings: 1 μM Compound 1 + 20 ng/ml TNFα, 24 hours
Method: HeLa cells were plated in a 6-well culture dish (5×10^5 cells/well) with EMEM medium (Lonza) supplemented with 10% heat-inactivated fetal bovine serum (Invitrogen). Two of the wells of the plate were pre-treated with 1 μM of Compound 1 for 30 minutes, at which time one of the wells was exposed to 20 ng/ml TNFα (Preprotech) for 24 hours. The other wells were treated with either 20 ng/ml TNFα or nothing for 24 hours. Following the treatment, whole-cell lysates were generated from the cells by lysis with RIPA buffer supplemented with protease and phosphatase inhibitors (Roche). Immunoblot detection of COX-2 protein was performed using an anti-COX-2 antibody (Cayman). Signal intensity for the COX-2 protein was normalized to that of beta-actin (Santa Cruz) for each sample and plotted graphically as arbitrary intensity units.

[4] = 1 μM Compound 1 + 20 ng/mL TNFα, 24 h, KEAP1 knockdown
[5] = 1 μM Compound 1 + 20 ng/mL TNFα, 24 h, without KEAP1 knockdown

Structure (SMILES): CC(C)(C)C(=O)NNC(=O)/C=C\n1cnc(-c2cc(C(F)(F)F)cc(C(F)(F)F)c2)n1 [Compound 1, (Z)-3-(3-(3,5-bis(trifluoromethyl)phenyl)-1H-1,2,4-triazol-1-yl)-N′-pivaloylacrylohydrazide]
- increase in NQO1 expression [1, 4]: 4 fold
- increase in Nrf2 expression compared to untreated cells [1, 4]: 2.5 fold
- increase in NQO1 expression [1, 5]: 2 fold
- increase in Nrf2 mRNA levels [1, 5]: ≤ 3 fold
- induction of EPHX1 expression [1, 5]: 1.5 fold
- EPHX1 mRNA expression ([1]; 1 μM Compound 1, presence or absence of TNFα): up-regulated the expression of EPHX1
- Nrf2 expression ([1]; 1 μM Compound 1 alone, with or without KEAP1 knockdown): did not have any significant effect
- Nrf2 signaling ([1]; 1 μM for 24 hrs in the presence of 20 ng/mL TNFα): up-regulated Nrf2 signaling
- plasma IL-10 ([2]; 6 mg/kg): reduced IL-10 compared to vehicle-treated control group
- qualitative visual inspection of whole brains (damage to dorsal-medial cortical tissue) ([2]; 6 mg/kg): damage ranging from moderate to minimal
- latency to find the hidden platform (MWM test), significance ([2]; 6 mg/kg p.o.): significant effects on days 17 and 18 after injury with 6 mg/kg
- latency to find the hidden platform (MWM test) compared to vehicle-treated BCCI-injured rats ([2]; 2, 4 and 6 mg/kg p.o.): dose dependent decrease in the latency to find the hidden platform
- cell-to-gray matter (CG) coefficient, NeuN labeling, compared to sham ([2]; dorsal cortical region adjacent to the injury site): −32%
- TNFα immunopositive cells in tissue surrounding the injury site ([2]; immunofluorescence): largely absent
- secondary injury responses (Rat IgG and TNFα labeling) ([2]; immunofluorescence): reduces secondary injury responses
- cell-to-gray matter (CG) coefficient, NeuN labeling, compared to sham ([2]; ventral cortex): −3%
- COX-2 protein expression [3]: decreased the amount of COX-2 protein in the presence of TNFα; also recorded: does reduce the amount of TNFα induced expression of COX-2 protein; also recorded: inhibits TNFα-induced COX-2 protein expression
